Tests used:
[1] = target: T1, Kappa opiate receptor (Cavia porcellus, UniProt P41144); test: In vitro bonding of Kappa opiate receptor; assay type: binding; settings: guinea pig cerebellum membranes; 1 nM 3H ethylketocyclazocine; pH 7.7; 25° C., 40 minutes; read-out: CI50 (50% inhibiting concentration)
T1 construct: Membrane culots preserved at -30° C. for about 30 days and prepared from guinea pig cerebellum; from tissue; host or cells: guinea pig cerebellum membranes
Protocol: Membrane culots preserved at -30° C. for about 30 days and prepared from guinea pig cerebellum were suspended in buffered Tris pH of 7.7. 2 ml fractions were placed in hemolysis tubes and 1 nM of 9^3 H ethylketocyclazocine and 5×10^-6 M of test compound were added thereto (in triple). When the test product displaced more than 50% of the radioactivity tied specifically to the receptor, the test was repeated with a range of seven doses to determine the dose which inhibited by 50% the radioactivity tied specifically to the receptor which is deemed CI50. The non-specific bond was determined by the addition of the known product, U-50488 H [Lahti et al., Life Science, Vol. 31 (1982), p 2257], at 10^-5 M (in triple). The mixture was incubated at 25° C. for 40 minutes, placed in a bath at 0° C. for 5 minutes and vacuum filtered. The product was rinsed with buffered Tris at a pH of 7.7 and the radioactivity was counted in the presence of Trition scintillation. The results were expressed directly as the 50% inhibiting concentration (CI50) or the concentration of the test compound which reduced by 50% radioactivity specificity fixed to the standard receptor.

[2] = In vivo analgesic activity, hot plate test; settings: Mus musculus, sc, 0.5 h; female mice, copper plate 56° C.; subcutaneous; 30 minutes after treatment; read-out: DA100 (dose which increased the reaction time 100%)
Protocol: In the hot plate test, female mice weighing 22 to 24 g were placed individually on a copper plate maintained at 56° C. and the reaction to the pain was manifested by licking of the paws by the animal. […] The mice were divided into homogenous group and the test compound was administered subcutaneously with one group receiving only the vehicle. The reaction time to pain was measured again 30 to 60 minutes after treatment and the dose which increased the reaction time 100% (DA100) 30 minutes after treatment as compared to the control animals was determined. The DA100 for the compound of Example 1 was 8 mg/kg.

[3] = Antiarythmic activity, aconitine perfusion in anesthesized rats; assay type: in vivo; settings: male rats; 10 mg/kg intravenous, 5 minutes before aconitine perfusion 10 μg/mn; vs controls
Protocol: Tracheotomized male rats weighing 300 to 350 g were anesthesized intraperitonally with 1.20 g/kg of urethane and were subjected to artifical respiration of 40 to 50 insufflations of 3 ml/minute. Needles were implanted subcutaneously to register the electrocardiogram of the rats by the signal of DII derivative. The test compounds were administered intraveinously and 5 minutes later, the jugular veins of the rats were perfused with 10 μg/mn or 0.2 ml of an aconitine solution and the time of appearance of troubles in the cardiac rhythm was noted. The results were expressed as a percentage of the elongation of time of the appearance of the cardiac rhythm troubles as compared to the controls and as a function of the dose of the test compound.

[4] = Diuretic activity; assay type: in vivo; settings: male Sprague-Dawley rats; 1 mg/kg; period t1h-t2h
Protocol: Male rats of the Sprague-Dawley strain weighing 180 to 200 g were fasted for 17 hours before the test but received as much water as they desired. Groups of 8 rats were used for the test doses with the rats receiving the test compound or only the vehicle. The remaining volume was measured hourly for 2 hours after administration of the compound. At the end of this period, the urine was collected and the activity of the compounds was expressed as the percentage of variation calculated as the urinary volume in the period t1h -t2h.

[5] = Acute toxicity; assay type: in vivo; settings: mice
Protocol: The LDO or the dose at which there was no mortality after 8 days was determined on mice and the DLO for the compounds of Example 1,3 and 4 was 100, 100 and 200 mg/kg, respectively.

T1 sequence (P41144 whole entry): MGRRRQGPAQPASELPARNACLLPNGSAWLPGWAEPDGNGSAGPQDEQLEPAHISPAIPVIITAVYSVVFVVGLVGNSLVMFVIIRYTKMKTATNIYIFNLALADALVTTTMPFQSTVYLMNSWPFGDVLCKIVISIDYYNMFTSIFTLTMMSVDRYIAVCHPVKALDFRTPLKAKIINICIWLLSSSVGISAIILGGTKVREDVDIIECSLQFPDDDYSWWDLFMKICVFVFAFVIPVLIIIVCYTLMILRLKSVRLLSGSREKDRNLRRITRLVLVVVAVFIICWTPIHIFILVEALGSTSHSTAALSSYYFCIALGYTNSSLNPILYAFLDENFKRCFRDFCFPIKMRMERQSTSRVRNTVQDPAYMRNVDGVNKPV

Structure (SMILES)	IC50 [1] [nM]	ED (100% increase in reaction time) [2] [mg/kg]	% elongation of time of the appearance of the cardiac rhythm troubles [3]	% Variation (urinary volume) [4]	LDO (dose at which there was no mortality after 8 days) [5] [mg/kg]
CN(C(=O)Cc1cccc2sccc12)[C@@H]1c2ccccc2C[C@H]1N1CCCC1 (racemic) [Example 1, Trans (±) N-[2,3-dihydro-2-(pyrrolidin-1-yl)-1H-inden-1-yl]-N-methyl-4-benzo[b]thiophene-acetamide]	1.8	8	+65%	+131%	100
CN(C(=O)Cc1cccc2ccccc12)[C@@H]1c2ccccc2C[C@H]1N1CCCC1 (racemic) [Example 3, trans (±) N-[2,3-dihydro-2-(1-pyrrolidinyl)-1H-inden-1-yl]-N-methyl-1-naphthalene-acetamide]	4.9			+267%	100
CN(C(=O)Cc1ccc2ccccc2c1)[C@@H]1c2ccccc2C[C@H]1N1CCCC1 (racemic) [Example 4, Trans (±) N-[2,3-dihydro-2-(1-pyrrolidinyl)-1H-inden-1-yl]-N-methyl-2-naphthalene-acetamide]					200

— patent US4888355A, “Indanes and their use as antiarrhythmic agents” (priority 1986, dated 1989)
